The source of these data is the NIST ThermoML archive (doi:10.1021/acs.jced.7b00288).

± gives the expanded uncertainty stated by the source.

Data set [1] is described as follows: Molar enthalpy of transition or fusion. The settings on record: Crystal; DSC.
The conditions of data set [2]: Crystal; DTA.

For `Cc1ccc(NC(=O)C(C)Cl)cc1` (configuration not stated) [2-chloro-N-(4-methylphenyl)propanamide], the “Molar enthalpy of transition or fusion” value in data set [1] was found to be 6.4 ± 0.206 kcal/mol. For the same compound, the Normal melting temperature in data set [2] worked out at 121.68 ± 0.43 °C.
